# Results as given in the NIST ThermoML archive (doi:10.1016/j.jct.2013.09.035).
# Numbers after ± are expanded uncertainties.
# Conditions: Liquid, Vibrating tube method
compound,measurement,setting,value
"FCC(F)(F)F [1,1,1,2-tetrafluoroethane]",mass density,"283.25 K, 60000 kPa",1416.44 ± 1.6 kg/m3
same,mass density,"283.26 K, 1000 kPa",1265.88 ± 0.5 kg/m3
same,mass density,"283.26 K, 5000 kPa",1282.35 ± 0.65 kg/m3
same,mass density,"283.26 K, 10000 kPa",1300.86 ± 0.57 kg/m3
same,mass density,"283.26 K, 20000 kPa",1331.64 ± 0.6 kg/m3
same,mass density,"283.26 K, 40000 kPa",1379.61 ± 1.1 kg/m3
same,mass density,"283.26 K, 80000 kPa",1446.35 ± 1.6 kg/m3
same,mass density,"302.84 K, 20000 kPa",1276.99 ± 0.73 kg/m3
same,mass density,"302.84 K, 40000 kPa",1333.11 ± 1.1 kg/m3
same,mass density,"302.84 K, 80000 kPa",1408.64 ± 1.5 kg/m3
same,mass density,"302.85 K, 1000 kPa",1190.34 ± 0.51 kg/m3
same,mass density,"302.85 K, 5000 kPa",1214.03 ± 0.51 kg/m3
same,mass density,"302.85 K, 10000 kPa",1238.45 ± 0.55 kg/m3
same,mass density,"302.85 K, 60000 kPa",1374.79 ± 1.1 kg/m3
same,mass density,"322.62 K, 5000 kPa",1140.59 ± 0.63 kg/m3
same,mass density,"322.63 K, 10000 kPa",1174.6 ± 0.56 kg/m3
same,mass density,"322.63 K, 20000 kPa",1224.02 ± 0.64 kg/m3
same,mass density,"322.64 K, 40000 kPa",1290.68 ± 0.88 kg/m3
same,mass density,"322.64 K, 60000 kPa",1338.04 ± 0.98 kg/m3
same,mass density,"322.64 K, 80000 kPa",1375.39 ± 1.4 kg/m3
same,mass density,"342.56 K, 5000 kPa",1047.23 ± 0.84 kg/m3
same,mass density,"342.56 K, 10000 kPa",1098.48 ± 0.71 kg/m3
same,mass density,"342.56 K, 20000 kPa",1163.35 ± 0.49 kg/m3
same,mass density,"342.56 K, 40000 kPa",1242.84 ± 0.65 kg/m3
same,mass density,"342.57 K, 60000 kPa",1296.48 ± 0.86 kg/m3
same,mass density,"342.57 K, 80000 kPa",1337.6 ± 1.3 kg/m3
same,mass density,"362.57 K, 5000 kPa",924.58 ± 1.2 kg/m3
same,mass density,"362.58 K, 10000 kPa",1014.86 ± 0.8 kg/m3
same,mass density,"362.58 K, 20000 kPa",1102.88 ± 0.54 kg/m3
same,mass density,"362.58 K, 40000 kPa",1197.86 ± 0.69 kg/m3
same,mass density,"362.58 K, 60000 kPa",1258.31 ± 0.81 kg/m3
same,mass density,"362.58 K, 80000 kPa",1303.78 ± 1.2 kg/m3
